Our source for the inhibition and Activity values is ChEMBL document CHEMBL4257515, “Assessment of the trifluoromethyl ketone functionality as an alternative zinc-binding group for selective HDAC6 inhibition” (Medchemcomm, 2018).

In experiment [1] the target is T1, Protein deacetylase HDAC6 (Homo sapiens) (UniProt Q9UBN7).
T1 sequence (whole entry): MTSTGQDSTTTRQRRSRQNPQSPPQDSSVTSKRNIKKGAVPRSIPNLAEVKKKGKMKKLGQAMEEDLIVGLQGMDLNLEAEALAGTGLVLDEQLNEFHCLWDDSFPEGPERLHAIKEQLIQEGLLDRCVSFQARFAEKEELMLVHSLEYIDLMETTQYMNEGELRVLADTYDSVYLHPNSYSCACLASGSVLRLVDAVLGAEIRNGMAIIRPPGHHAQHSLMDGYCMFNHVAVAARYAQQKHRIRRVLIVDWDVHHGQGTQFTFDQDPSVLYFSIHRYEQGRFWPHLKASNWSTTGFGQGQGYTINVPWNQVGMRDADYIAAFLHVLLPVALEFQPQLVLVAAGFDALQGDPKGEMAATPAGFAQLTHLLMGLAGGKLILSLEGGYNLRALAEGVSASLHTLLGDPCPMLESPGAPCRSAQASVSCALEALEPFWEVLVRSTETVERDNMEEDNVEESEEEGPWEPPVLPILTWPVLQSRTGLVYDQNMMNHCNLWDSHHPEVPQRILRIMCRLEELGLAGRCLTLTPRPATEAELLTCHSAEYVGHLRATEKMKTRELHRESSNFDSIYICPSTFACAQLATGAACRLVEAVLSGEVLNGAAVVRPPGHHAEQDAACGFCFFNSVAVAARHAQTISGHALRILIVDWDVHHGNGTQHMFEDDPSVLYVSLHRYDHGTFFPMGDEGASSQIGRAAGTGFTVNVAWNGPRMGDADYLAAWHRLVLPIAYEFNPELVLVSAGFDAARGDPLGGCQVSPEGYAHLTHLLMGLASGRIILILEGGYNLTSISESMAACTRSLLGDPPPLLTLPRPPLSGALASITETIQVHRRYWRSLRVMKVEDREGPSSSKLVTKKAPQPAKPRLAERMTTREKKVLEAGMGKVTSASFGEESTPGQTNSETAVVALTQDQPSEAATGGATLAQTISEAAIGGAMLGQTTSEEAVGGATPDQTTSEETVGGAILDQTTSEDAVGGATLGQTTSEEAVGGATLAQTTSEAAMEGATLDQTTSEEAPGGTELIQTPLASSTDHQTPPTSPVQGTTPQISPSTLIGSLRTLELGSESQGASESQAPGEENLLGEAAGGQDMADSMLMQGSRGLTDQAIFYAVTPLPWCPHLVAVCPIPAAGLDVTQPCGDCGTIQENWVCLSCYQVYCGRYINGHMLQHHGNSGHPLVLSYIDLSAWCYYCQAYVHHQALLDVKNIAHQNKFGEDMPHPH
Put plainly: Inhibition of full length recombinant human HDAC6 at 10 uM using Fluor-de-Lys deacetylase as substrate preincubated for 15 mins followed by substrate addition and measured after 60 mins by spectrofluorimetric method relative to control.

The target of experiment [2] is T1, Protein deacetylase HDAC6 (Homo sapiens). The experiment in a line: Inhibition of HDAC6 in human SKOV3 cells assessed as increase in acetylated tubulin levels at 1 uM after 1 hr by immunoblot method. The format is cell-based.
For experiment [3], the system named is SK-OV-3. The experiment in a line: Antiproliferative activity against human SKOV3 cells at 1 to 50 uM measured every 2 hrs for 200 hrs by IncuCyte ZOOM cell confluence assay. The experiment is classed as functional, cell-based.
Experiment [4] deals with T1, Protein deacetylase HDAC6 (Homo sapiens). Put plainly: Inhibition of HDAC6 in human SKOV3 cells assessed as increase in acetylated tubulin levels at 1 to 50 uM after 1 hr by immunoblot method. The format is cell-based. For orientation: In western blotting, separated proteins are transferred to a membrane and probed.
Experiment [5] deals with Histone deacetylase (Homo sapiens) (UniProt Q13547+O15379+Q9UBN7+Q92769+Q9UQL6+Q8WUI4+Q9BY41+Q96DB2+P56524+Q9UKV0+Q969S8). The experiment in a line: Inhibition of nuclear HDAC in human SKOV3 cells assessed as increase in acetylated histone H3 levels at 1 to 50 uM after 1 hr by immunoblot method. The format is cell-based.
Experiment [6] concerns SK-OV-3. The experiment in a line: Antiproliferative activity against human SKOV3 cells at 10 uM measured every 2 hrs for 200 hrs by IncuCyte ZOOM cell confluence assay. The format is functional, cell-based.

The structures appear in SMILES notation. The source made the active and inactive calls. No cut-off for these calls is given here.

As usually defined, the inhibition is how much of the control response was suppressed. Consider `O=C(NO)c1ccc(Cn2c3c(c4cc(F)ccc42)C[S+]([O-])CC3)cc1` (stereo not given), for which the inhibition in experiment [1] worked out at 100%. Also, the inhibition entry in experiment [2] is “Active”.
Regarding `O=C(c1ccc(Cn2c3c(c4cc(F)ccc42)C[S+]([O-])CC3)cc1)C(F)(F)F` (stereo not given), the inhibition in experiment [1] came out at 25%. Also, the outcome in the experiment with SK-OV-3 [3] was inactive. The inhibition result in experiment [4] and in experiment [5] was “inactive” in each case.
With `O=C(CCCCCCC(=O)Nc1ccccc1)NO`, the result in the experiment on SK-OV-3 [6] was Active.
Consider `O=C(c1ccccc1)C(F)(F)F`, for which the inhibition in experiment [1] came to 0%.
With `O=C(c1ccc(Cn2c3c(c4ccccc42)C[S+]([O-])CC3)cc1)C(F)(F)F` (stereo not given), the inhibition in experiment [1] was found to be 17%.
In the case of `O=C(NO)c1ccccc1`, in experiment [1], the inhibition amounted to 88%.
